We go through four compounds from patent US12440567B2, “Aqueous antibody formulation stabilized by antioxidants for parenteral administration” (AMGEN INC., priority 2007, dated 2025).

For data set [1] the following is noted: PABA: doses as high as 12 grams per day; cited from earlier work.
The nature of data set [2]: Color change of the antioxidant upon light. Format: physicochemical. From the text: P-amino benzoic acid (PABA) has a relatively powerful antioxidant effect.
Another data set concerns Antibody A (IgG1). Nature of the data set: SEC-HPLC aggregation of Antibody A (IgG1) after UV-B exposure. Format: physicochemical.
For data set [3] the following is noted: cited from earlier work.
Data set [4] relates to Antibody A. Kind of data set: Discoloration (yellowing) of Antibody A formulations after UV-B exposure. Conditions: 10 mM additive alone; UV-B light 24 hours. Format: physicochemical.
From the text: Discoloration can be assessed visually or by measurement of absorbance at a specific wavelength.
Proteins may also become yellow in color following exposure to UV light.
Pyridoxine is another water soluble B-vitamin (B6) which was studied as a possible antioxidant for preventing protein aggregation caused by UV-B exposure.
In another data set the test system is EPO. Conditions: 10 mM additive, 0.06% H2O2, 24 hours, room temperature.
Data set [5] has as its system Antibody B binding to protein A. Kind of data set: Binding of Antibody B to protein A after UV-B exposure of the formulation. As to conditions: 20 mM additive; pH 6.90 phosphate buffer; 0-24 hours UV-B. As to the method: For the examples below involving exposure to UVB radiation, each sample was exposed to UVB light (λ≈302 nm) for varying times, using a UVP 8W model UVLMS-38 lamp at 4° C. The formulations were then analyzed using size exclusion chromatography high pressure liquid chromatography (SEC-HPLC). Aggregation (measured via SEC-HPLC analysis) and binding (measured using CM5 gold sensor chips) were measured to determine the effect of the antioxidant on aggregation and bioactivity of the therapeutic protein.
The binding activity of therapeutic protein to a ligand (e.g. to an antibody or binding partner, or, in cases where the therapeutic was an antibody, binding activity to the specific target antigen or to protein A) was determined as follows. […] The therapeutic protein-binding ligand of interest was injected until the desired immobilization level was achieved (above 5000 response units). Three different therapeutic protein-binding ligands were measured—Antibody A's target antigen, Protein A, and D11 (an antibody that binds to erythropoietin). […] The remaining activated groups were blocked with 1.0 M ethanolamine-HCl, pH 8.5.
A standard curve was prepared by using native forms of the therapeutic protein of interest. Native forms of the therapeutic protein were diluted in HBS-EP buffer (pH 7.4) to concentrations between 1 and 5 μg/mL, and then injected on the column, prepared as described above to obtain a standard curve. At the end of each sample run, regeneration buffer was used to wash away any bound therapeutic protein in preparation for subsequent injections.
Various UV-stressed antibody formulations were also diluted in HBS-EP buffer (pH 7.4) to a concentration within the standard curve region, and injected to quantitate the loss of bioactivity to its respective ligand-binding partner.

The subject of data set [6] is Antibody A. As to conditions: 400 mM proline; 1% H2O2, 2 weeks. Here is the method: Extreme conditions designed to greatly increase free radical generation include exposure to UVA and/or UVB light at 4° C. to 25° C. for 0.5 to 24 hours, or exposure to a 1% solution of hydrogen peroxide at 25° C. for 2 weeks, or exposure to 0.2 mM Fe-EDTA, 0.3% H2O2, and 1 mM ascorbate for 2 hours or longer at 37° C. Samples may alternatively be exposed to light providing an overall illumination of not less than 1.2 million lux hours and an integrated near UV energy of not less than 200 watt hours/square meter.

Each structure is given as a SMILES string.

Method for Antibody A (IgG1): The SEC-HPLC conditions were as follows: a G3000 TOSOH SWXL column was used and the flowrate was set at 0.5 mL/min. […] For both IgG1 and IgG2, the mobile phase was 80 mM sodium phosphate, 300 mM sodium perchlorate, 10% isopropanol, pH 7.2, and each sample was run for 45 minutes.
For FIG. 5, the anti-streptavidin formulation was prepared having the following characteristics: 1 mg/mL anti-streptavidin mAb (IgG2), 10 mM sodium acetate, 5% sorbitol, and pH 5.00. For FIG. 6, the Antibody A formulation was prepared having the following characteristics: 1 mg/mL Antibody A (IgG1), 10 mM sodium acetate, 9% sucrose, and pH 5.20.
Method for EPO: An exemplary protocol for Met-54 oxidation and peroxide assay is as follows. 0.6% hydrogen peroxide is added to 20 mM sodium phosphate solution containing 0.336 m/mL erythropoietin (EPO). Following 24 hours incubation at room temperature, 1 μg of the enzyme catalase is added to quench the excess hydrogen peroxide. 10 μL of 1M Tris solution pH 8.0 is added to 90 μL of EPO solution followed by addition of 2 μL of a 1 mg/mL trypsin solution. Samples are incubated overnight at room temperature. Peptides are separated using reverse phase HPLC (RP-HPLC). Peptides are identified by mass spectrometry (LC-MS). % Met-54 oxidation is calculated using peak areas determined by integration of UV chromatogram from RP-HPLC

With `Nc1ccc(C(=O)O)cc1` [PABA, P-amino benzoic acid], in data set [1], the toxicity in humans entry is “without significant toxicity”. In data set [2], the “color change upon light” value is recorded as “changes to an orange-brown color upon light”. In the data set with Antibody A (IgG1) (20 mM PABA, Antibody A 1 mg/mL pH 5.00, UV 1, 2, or 3 hours), the “aggregation of Antibody A (SEC-HPLC)” value was “able to significantly reduce the amount of aggregation”.

As for `Cc1ncc(C[n+]2csc(CCO)c2C)c(N)n1` [Thiamine, thiamine], the toxicity in humans entry in data set [1] is reported as “no known toxicity”. In addition, in data set [3], the solubility result is “more soluble than the cinnamic acids or the benzoic acid derivatives”. Besides, in the data set with Antibody A (IgG1) (thiamine as low as 5 mM, Antibody A 3 mg/mL, UV-B 4 hours), the “aggregation of Antibody A (SEC-HPLC)” value is “able to significantly inhibit Antibody A aggregation”.

For the compound `CSCC[C@H](N)C(=O)O` [methionine], the “yellowing of Antibody A formulation” value with Antibody A [4] is “significant yellowing”. Besides, the “amount of Met-54 oxidation” value in the data set on EPO was “able to reduce the amount of EPO oxidation”. For the same compound, the “binding of Antibody B to protein A after UV-B exposure” value in data set [5] is given as “not able to prevent this UV-B induced degradation”.

On to `O=C(O)[C@@H]1CCCN1` [proline], for which the “prevention of Antibody A aggregation caused by peroxide” value in the data set with Antibody A [6] is reported as “stronger effect”. Moreover, the “protection of Antibody A from UV-B induced degradation (aggregation)” value in the data set on Antibody A (IgG1) (200 mM proline, Antibody A 1 mg/mL pH 5.00, UV 15 minutes) is “weak effect”.
